The text below walks through data of ChEMBL document CHEMBL3400074, “Development of 2-amino-5-phenylthiophene-3-carboxamide derivatives as novel inhibitors of Mycobacterium tuberculosis DNA GyrB domain” (Bioorg Med Chem, 2015).

Molecules are shown by their SMILES. Converted amounts (≈) assume the structure as drawn.

For this test, the system named is Mycobacterium tuberculosis. Description: Antibacterial activity against multidrug-resistant Mycobacterium tuberculosis H37Rv ATCC 27294 after 28 days by agar dilution method. Format: functional. The following applies: H37Rv ATCC 27294, 672 h. In general terms: Agar dilution tests growth on a series of plates holding different concentrations.

Usually MIC stands for the lowest concentration found to suppress growth. High values mean a less susceptible organism, low ones a more susceptible organism. Regarding `CC1COc2c(N3CCN(C)CC3)c(F)cc3c(=O)c(C(=O)O)cn1c23` (configuration not stated) [OFLOXACIN], the MIC came to 2.16 µM (≈ 0.781 µg/mL). For `NC(=O)c1cc(-c2ccccc2)sc1NC(=O)c1ccccc1`, 4.84 µM (≈ 1.56 µg/mL) was the least that counted as inhibitory (MIC). In the case of `NC(=O)c1cc(-c2ccccc2)sc1NC(=S)NCc1ccccc1`, the MIC came out at 34 µM (≈ 12.5 µg/mL). The molecule `Cc1ccc(NC(=O)Nc2sc(-c3ccccc3)cc2C(N)=O)cc1` displayed an MIC of 35.6 µM (≈ 12.5 µg/mL).

In the case of `NC(=O)c1cc(-c2ccccc2)sc1NC(=O)Nc1ccc(F)cc1`, it took 17.6 µM (≈ 6.25 µg/mL) to inhibit growth (MIC). Turning to `NC(=O)c1cc(-c2ccccc2)sc1NC(=O)C1CCCCC1`, the MIC was 9.48 µM (≈ 3.11 µg/mL). Consider `NC(=O)c1cc(-c2ccccc2)sc1NC(=O)c1cnccn1`, for which the MIC came to 38.6 µM (≈ 12.5 µg/mL).

With `NC(=O)c1cc(-c2ccccc2)sc1NC(=O)c1cccc2ccccc12`, it took 25 µM (≈ 9.3 µg/mL) to inhibit growth (MIC).

Molecule `NC(=O)c1cc(-c2ccccc2)sc1NC(=O)Nc1ccc(Br)cc1` showed an MIC of 15 µM (≈ 6.25 µg/mL). Next, `CCCC(=O)Nc1sc(-c2ccccc2)cc1C(N)=O`: 10.8 µM (≈ 3.13 µg/mL).

With `NC(=O)c1cc(-c2ccccc2)sc1NC(=S)Nc1ccc(F)cc1`, the MIC is 67.4 µM (≈ 25 µg/mL). The figure for `Cc1ccc(NC(=S)Nc2sc(-c3ccccc3)cc2C(N)=O)cc1` is 8.5 µM (≈ 3.12 µg/mL); for `NC(=O)c1cc(-c2ccccc2)sc1NC(=S)Nc1ccc([N+](=O)[O-])cc1` it is 78.5 µM (≈ 31.3 µg/mL). Take `NC(=O)c1cc(-c2ccccc2)sc1NC(=O)c1ccc(Cl)cc1`: the minimal inhibitory concentration (MIC) was 8.76 µM (≈ 3.13 µg/mL). Molecule `NC(=O)c1cc(-c2ccccc2)sc1NC(=O)Nc1ccc(Cl)cc1` yielded an MIC of 8.42 µM (≈ 3.13 µg/mL). The figure for `NC(=O)c1cc(-c2ccccc2)sc1NC(=O)c1cc2ccccc2[nH]1` is 34.6 µM (≈ 12.5 µg/mL); for `NC(=O)c1cc(-c2ccccc2)sc1NC(=O)Nc1ccc([N+](=O)[O-])cc1` it is 16.3 µM (≈ 6.24 µg/mL). Next, `NC(=O)c1cc(-c2ccccc2)sc1NC(=O)c1ccc(Oc2ccccc2)cc1`: 15.1 µM (≈ 6.25 µg/mL); `NC(=O)c1cc(-c2ccccc2)sc1NC(=S)Nc1ccc(Br)cc1`: 18 µM (≈ 7.78 µg/mL).

`NC(=O)c1cc(-c2ccccc2)sc1NC(=S)Nc1ccc(Cl)cc1` gave an MIC of 80.7 µM (≈ 31.3 µg/mL). `NC(=O)c1cc(-c2ccccc2)sc1NC(=O)C1CCCC1` had an MIC of 39.7 µM (≈ 12.5 µg/mL). The figure for `CC(C)NC(=O)Nc1sc(-c2ccccc2)cc1C(N)=O` is 10.2 µM (≈ 3.11 µg/mL); for `CC[C@@H](CO)NCCN[C@@H](CC)CO` [ETHAMBUTOL] it is 7.64 µM (≈ 1.56 µg/mL); for `NC(=O)c1cc(-c2ccccc2)sc1NC(=S)Nc1ccccc1` it is 70.8 µM (≈ 25 µg/mL).

`CO[C@H]1/C=C/O[C@@]2(C)Oc3c(C)c(O)c4c(O)c(c(/C=N/N5CCN(C)CC5)c(O)c4c3C2=O)NC(=O)/C(C)=C\C=C\[C@H](C)[C@H](O)[C@@H](C)[C@@H](O)[C@@H](C)[C@H](OC(C)=O)[C@@H]1C` [RIFAMPIN]: the MIC came to 0.23 µM (≈ 0.189 µg/mL).

For the molecule `NC(=O)c1cc(-c2ccccc2)sc1NC(=O)Nc1ccccc1`, the lowest concentration to inhibit growth (MIC) was 9.27 µM (≈ 3.13 µg/mL).

Regarding `CCC(=O)Nc1sc(-c2ccccc2)cc1C(N)=O`, the MIC is 22.8 µM (≈ 6.26 µg/mL). For the molecule `NC(=O)c1cc(-c2ccccc2)sc1NC(=O)c1ccc([N+](=O)[O-])cc1`, the MIC was 8.48 µM (≈ 3.12 µg/mL). As for `NNC(=O)c1ccncc1` [ISONIAZID], the MIC came out at 0.66 µM (≈ 0.0905 µg/mL). The figure for `NC(=O)c1cc(-c2ccccc2)sc1NC(=O)NCc1ccccc1` is 18.5 µM (≈ 6.5 µg/mL); for `CC(C)NC(=S)Nc1sc(-c2ccccc2)cc1C(N)=O` it is 19.6 µM (≈ 6.26 µg/mL); for `CC(=O)Nc1sc(-c2ccccc2)cc1C(N)=O` it is 24 µM (≈ 6.26 µg/mL).
